From patent US8273372B2, “Extracellular matrix composition” (Restoration of Appearance & Function Trust, priority 2006, dated 2012)
Like-named read-outs stand apart in the source and are kept apart here.

Legend:
[1] = tested on: human dermal fibroblast cultures; experiment: Toxicity assay, MTS/PMS assay of cell viability; assay type: cell-based
Experimental: Culture medium was aspirated from confluent culture and washed with versene. […] Trypsin was neutralised with an equal volume of growth medium, the cell suspension was transferred to a universal tube. The culture flask was washed with PBS and transferred to the universal tube. Centrifugation was performed at 200×g for 7 minutes. Cells were resuspended in 1-2 ml growth medium.
Cells were seeded (10^5/well) into 24-well plates in 0.5 ml DMEM growth medium/well and incubated at 37° C. in a humidified 5% CO2 incubator, until the cells adhered and spread, typically overnight. A single well blank/plate was retained for a reagent control.
Culture medium was aspirated from cultures and replaced with: a weighed sample of scaffold (20 mg/well) in fresh serum-free DMEM; serum-free DMEM with a range of dilutions of glutaraldehyde or EDC as cross-linking agents. Cells were incubated at 37° C. in humidified 5% CO2 for 1 hr.
The medium and scaffold material was removed from cells and replaced with fresh maintenance medium (DMEM with 2% HIFBS) and returned to the incubator for 2 to 22 hours. Direct toxicity measurements were taken at 2, 14 and 20 hours. For exposure to matrices, incubation was for 20 hrs. The same medium was added to an empty control well for a reagent blank.
Aliquots of MTS & PMS stock solutions were thawed and a working MTS/PMS reagent was prepared (2 ml MTS+100 μl PMS). MTS/PMS reagent was added to all wells (50 μl/well) and returned to the incubator for 2-4 hours, until colour developed in the medium over control cultures without toxic challenge.
100 μl aliquots of medium were transferred to a 96 well ELISA plate for spectrophotometric measurement at 495 nm.
Matrices of 1% fibrin/1% alginate, foamed & lyophilised, were cross-linked with EDC or glutaraldehyde and washed 5 times in glycine or PBS before a second lyophilisation, or not, as indicated. […] pieces of matrix were incubated in wells with confluent fibroblast cultures in serum-free medium for 1 hr to detect leachable toxicity, assessed after 20 hr to check for induction of delayed cell death.

neutrophil CD18 = experiment: Human neutrophil activation assay (CD18, FACS); assay type: cell-based; conditions: 1 hour at 37° C., FIGS. 36 and 37, read-out: ED50 neutrophil CD18 activation
Experimental: Dextran 70 and ACD were warmed to 37° C. in a water bath. 2.5 ml ACD was drawn into a 20 ml syringe. 10-15 ml of blood was drawn from a volunteer into the same syringe and inverted several times to mix. The needle was changed and 6-7 ml of Dextran 70 was drawn. Some air was drawn into the top of the syringe and mixed thoroughly by inverting the syringe several times. The syringe was turned upright, taped to the inside of a 37° C. water bath and left for approximately 1.5 hours to allow for erythrocytes to sediment, leaving a leukocyte-rich plasma upper layer.
The syringe was carefully removed from the water bath keeping upright and the top of the needle was bent through about 120°. A 15 ml polypropylene tube was placed under the tip of the needle and approximately half of the plasma was slowly removed (containing the leukocytes). The remainder of the plasma was removed into a second tube leaving the red blood cells in the syringe to be discarded. Each of the 15 ml tubes was topped up with PBS/g and inverted to mix.
The tubes were centrifuged at 1000 rpm for 10 minutes. The supernatant was removed using a 1 ml plastic pipette and the pellet was loosened. If the supernatant appeared cloudy then a check was performed under the microscope for remaining cells and centrifuged again if necessary. When the supernatant was clear it was discarded. […]

human dermal fibroblasts [2] = experiment: MTS assay, effect on proliferation over 3 days; assay type: cell-based; conditions: FIGS. 30 and 31
Experimental: (§1) The MTS assay was used as described hereinbefore with certain modifications.
(§2) Firstly, two modalities were used, (i) acute cytotoxicity and (ii) effect on proliferation over 3 days.
(§3) On day −1, human dermal fibroblasts were seeded for (i) at high density (5×10^5/well) and for (ii) at low density (2.5×10^4/well).
(§4) On day 0, cultures were washed in PBS/g and exposed to the test agent diluted into PBS/g unless otherwise stated, for a test period (1-4 hr). Then the test agent was removed and culture medium replaced. For (i), cells were returned to maintenance medium (2% FBS/DMEM) followed by MTS/PMS reagent for two hours. For (ii), cells were returned to growth medium (10% FBS/DMEC) for three days. After this period, the growth medium was aspirated and replaced with maintenance medium (2% FBS/DMEM) followed by MTS/PMS reagent for two hours.
(§5) MTS colour change at 2 hours was measured as described hereinbefore.
(§6) Test agents were GTA and soaked scaffold supernatants (a), fibrinogen and fragment E Schiff base hydrolysate (b) and (c) and alginate (d).

human dermal fibroblasts [3] = experiment: MTS assay, acute cytotoxicity; assay type: cell-based; conditions: FIGS. 30 and 31
Experimental: as §1, §2, §3, §4, §5, §6

HPMEC = experiment: Cell adhesion assay on cross-linked matrix protein coatings (crystal violet); assay type: cell-based, human; conditions: coating cross-linked with glutaraldehyde or EDC dilution range, 1 hr adhesion; FIG. 5
Experimental: HPMEC were isolated from human placentae obtained with consent and cultured according to previously published methods (Leach et al. (1994) Placenta 15(4): 355-64; Dye et al. (2001) Microvasc Res 62(2): 94-113; Dye et al. (2004) Faseb J 18(1): 125-7). Established cultures are phenotypically stable for typically up to 25 passages at a split ratio of 1:3. Cultures are maintained in standard growth medium (M199+5% PDPDS+2% HIFBS). Cultures were maintained in a humidified 5% CO2 and 37° C. atmosphere. For biocompatibility assessment of scaffolds, harvested cells were resuspended in high growth medium (M199+5% HIBFS). For cell adhesion assays harvested cells were resuspended in M199+0.5% BSA. […]
The well was washed with a sufficient number of washes to reduce residual concentration to below cytotoxic limits (5×100 μl per well) with PBS, replaced with 50 μl/well BSA/NaHCO3 (covalent reagent blocking step) and incubated for 1 hr at 37° C. Washing was performed twice with sterile PBS and the plate was stored with 100 μl/well PBS until the cells were ready.
Accutase was thawed and M199/BSA was prepared. […] The supernatant was aspirated and the cells were resuspended in 1-2 ml M199/BSA as appropriate, titurated, and cell density was counted (1:10 in 4% trypan blue/PBS), aiming for around 2×10^6/ml.
The number of cells required for the assay was calculated using 1-2×10^4 cells/well. […]

Compound: CCN=C=NCCCN(C)C.Cl [EDC, 1-(3-Dimethylamino-propyl)-3-ethyl-carbodiimide (EDC) HCl]
- LD50 for cells relative to the lowest cross-linking concentration used [1]: 5,000-10,000 times less
- toxicity (loss of cell viability) ([1]; 1 hr exposure, measured at 2, 14 and 20 hours, FIGS. 6-7): acute concentration-dependent toxicity

Compound: O=CCCCC=O [glutaraldehyde]
- EC50 (neutrophil CD18): 150 to 500 µM
- LD50 for proliferation (human dermal fibroblasts [2]): around 7 μM
- acute LD50 on HDF cytotoxicity (human dermal fibroblasts [3]): 50 to 150 µM
- LD50 for cells relative to the lowest cross-linking concentration used [1]: 5-10 times less
- toxicity (loss of cell viability) [1]: acute concentration-dependent toxicity

Compound: collagen
- effect of cross-linking on cell adhesion (HPMEC): biphasic effect

Compound: fibrinogen
- effect of cross-linking on cell adhesion (HPMEC): continuously increases adhesion
